Among the test systems are HOP-62 NSCLC; A549 NSCLC; SR leukemia; MCF7 breast; COLO 205 colon; SK-MEL-2 melanoma; ACHN renal.
Common to all, as to experiment: DTP human tumour cell line panel, 48 h

Each structure is given as a SMILES string.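 Interpolation was linear, between the two tested concentrations surrounding the appropriate level; five concentrations were tested over 48 hours in 96-well plates. GI50: concentration for 50% inhibition of growth. The concentration for full growth arrest is given as TGI.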

For eleven compounds, GI50 and TGI results are on record in PubChem BioAssay (NCI).

One may read the GI50 as the concentration giving 50% growth inhibition. Usually TGI stands for the concentration giving total growth inhibition. A higher TGI goes with less potent growth arrest. For the compound `FC(F)c1ncc(-c2ccc(C(F)(F)F)cc2)c(NC2CCCCCC2)n1`, the GI50 in the test with HOP-62 NSCLC, in the test on A549 NSCLC, in the test on SR leukemia, in the test with MCF7 breast, with COLO 205 colon and in the test on SK-MEL-2 melanoma was more than 10 µM in each case. Besides, in the test with ACHN renal, the GI50 was more than 10 µM. Also, the TGI in the test with HOP-62 NSCLC, in the test with A549 NSCLC, with SR leukemia, in the test with MCF7 breast, in the test with COLO 205 colon and in the test with SK-MEL-2 melanoma was more than 10 µM in each case. Also, in the test with ACHN renal, the TGI was more than 10 µM.
With `CN1CCN(Cc2ccc(NC(=O)c3[nH]ncc3Nc3ncnc4[nH]ccc34)cc2)CC1`, the concentration for 50% growth inhibition (GI50) in the test with HOP-62 NSCLC was 0.348 µM; in the test on A549 NSCLC, 0.742 µM; in the test on SR leukemia, 0.229 µM; in the test on MCF7 breast, 0.118 µM; in the test on COLO 205 colon it was 0.193 µM; in the test on SK-MEL-2 melanoma, 0.325 µM. The 50% growth inhibitory concentration (GI50) in the test with ACHN renal was 0.322 µM. Also, the total growth inhibition concentration (TGI) in the test with HOP-62 NSCLC turned out to be 3.44 µM; with A549 NSCLC, 10.8 µM; in the test on SR leukemia, 0.708 µM; in the test on MCF7 breast, 29.1 µM; with COLO 205 colon it was 0.427 µM; in the test on SK-MEL-2 melanoma, 0.921 µM. Also, in the test with ACHN renal, the concentration for total growth inhibition (TGI) is 10 µM.
As to `CCc1ccc2oc(=O)ccc2c1`, the concentration for total growth inhibition (TGI) with HOP-62 NSCLC, with A549 NSCLC, in the test on SR leukemia, in the test with MCF7 breast, in the test with COLO 205 colon and with SK-MEL-2 melanoma was more than 100 µM in each case. The compound further came in with a TGI in the test with ACHN renal of more than 100 µM.
Consider `Cc1cc(=O)[nH]c(N/N=C/c2ccccc2O)n1`, for which the GI50 in the test on HOP-62 NSCLC is 19 µM; in the test with A549 NSCLC it was 4.4 µM; in the test on SR leukemia, 6.22 µM; with MCF7 breast it was 0.463 µM; in the test with COLO 205 colon, 3.81 µM; in the test on SK-MEL-2 melanoma, more than 100 µM. The GI50 with ACHN renal was 7.39 µM. Besides, the TGI in the test on HOP-62 NSCLC, in the test on A549 NSCLC, in the test on SR leukemia, with MCF7 breast, with COLO 205 colon and in the test on SK-MEL-2 melanoma was more than 100 µM each time. The same compound returned a total growth inhibition concentration (TGI) in the test with ACHN renal of more than 100 µM.
On to `COc1cc(C)cc(C(=O)/C=C/c2ccccc2)c1O`, for which the TGI in the test on HOP-62 NSCLC was 40.3 µM; in the test on A549 NSCLC, more than 100 µM; in the test on SR leukemia, 77.6 µM; in the test on MCF7 breast, 49 µM; in the test on COLO 205 colon, 38.1 µM; with SK-MEL-2 melanoma it was 48.2 µM. Further, in the test with ACHN renal, the total growth inhibition concentration (TGI) was 33.1 µM.
On to `CN1CCN(CCCOc2ccc3nc(Nc4ccc(F)c(F)c4)ccc3c2)CC1`, for which the GI50 with HOP-62 NSCLC was 1.86 µM; in the test with A549 NSCLC it was 2.19 µM; in the test on SR leukemia it was 1.71 µM; in the test with MCF7 breast it was 1.66 µM; in the test with COLO 205 colon, 1.72 µM; in the test on SK-MEL-2 melanoma it was 1.91 µM. For the same compound, the GI50 with ACHN renal is 2.24 µM. The TGI with HOP-62 NSCLC is 3.88 µM; in the test with A549 NSCLC, 5.26 µM; in the test on SR leukemia, 6.95 µM; with MCF7 breast, 3.53 µM; in the test with COLO 205 colon, 3.69 µM; with SK-MEL-2 melanoma, 3.8 µM. In the test with ACHN renal, the total growth inhibition concentration (TGI) came out at 5.6 µM.
As to `Cc1nc(NS(=O)(=O)c2ccc(NCN3C(=O)c4ccccc4C3=O)cc2)oc1C`, the GI50 with HOP-62 NSCLC, in the test on A549 NSCLC, in the test on SR leukemia, in the test on MCF7 breast, in the test on COLO 205 colon and with SK-MEL-2 melanoma was more than 100 µM each time. In the test on ACHN renal, the GI50 is more than 100 µM. Also, the total growth inhibition concentration (TGI) in the test with HOP-62 NSCLC, with A549 NSCLC, with SR leukemia, in the test on MCF7 breast, with COLO 205 colon and in the test with SK-MEL-2 melanoma was more than 100 µM in each case. This compound registered a TGI in the test on ACHN renal of more than 100 µM.
`O=C1NC(=O)C(=Cc2cn(Cc3ccccc3)c3ccccc23)C(=O)N1`: the GI50 is 15.2 µM in the test on HOP-62 NSCLC; 13 µM in the test on A549 NSCLC; 10.6 µM with SR leukemia; 6.54 µM in the test on MCF7 breast; 1.13 µM in the test with COLO 205 colon; 6.41 µM in the test with SK-MEL-2 melanoma. In addition, in the test with ACHN renal, the GI50 was 19.8 µM. Moreover, the TGI in the test on HOP-62 NSCLC was found to be 37.7 µM; with A549 NSCLC, 30.7 µM; in the test with SR leukemia, 30.5 µM; in the test on MCF7 breast, 23 µM; with COLO 205 colon it was 9.44 µM; in the test on SK-MEL-2 melanoma it was 28.3 µM. The TGI in the test with ACHN renal was found to be 53.9 µM.
Regarding `CN(C)CCN1C(=O)c2cccc3c(/C=C/CN4C(=O)c5cccc6cccc(c56)C4=O)ccc(c23)C1=O`, the GI50 in the test with HOP-62 NSCLC was 42 µM; with A549 NSCLC, more than 100 µM; in the test on SR leukemia it was 39.2 µM; in the test with MCF7 breast, 21.1 µM; in the test on COLO 205 colon it was more than 100 µM; with SK-MEL-2 melanoma it was more than 100 µM. For the same compound, the GI50 in the test with ACHN renal is 28.3 µM. Also, the concentration for total growth inhibition (TGI) with HOP-62 NSCLC was more than 100 µM; with A549 NSCLC, more than 100 µM; in the test with SR leukemia, more than 100 µM; with MCF7 breast, 62.4 µM; in the test on COLO 205 colon, more than 100 µM; in the test with SK-MEL-2 melanoma, more than 100 µM. The compound also returned a concentration for total growth inhibition (TGI) with ACHN renal of more than 100 µM.
Consider `COC1=C(OC)C(=O)C(C/C=C(\C)CC/C=C(\C)CC/C=C(\C)CC/C=C(\C)CC/C=C(\C)CC/C=C(\C)CC/C=C(\C)CC/C=C(\C)CC/C=C(\C)CCC=C(C)C)=C(C)C1=O`, for which the GI50 with HOP-62 NSCLC, in the test with A549 NSCLC, with SR leukemia, with MCF7 breast, in the test on COLO 205 colon and in the test on SK-MEL-2 melanoma was more than 100 µM in each case. In addition, in the test with ACHN renal, the GI50 is more than 100 µM. Also, the concentration for total growth inhibition (TGI) in the test with HOP-62 NSCLC, in the test on A549 NSCLC, in the test on SR leukemia, with MCF7 breast, with COLO 205 colon and with SK-MEL-2 melanoma was more than 100 µM each time. Moreover, the total growth inhibition concentration (TGI) in the test with ACHN renal was more than 100 µM.
Turning to `COc1c(OC)c(OC)c2c(=O)cc(-c3ccc(OC(C)C)cc3)oc2c1OC`, the TGI with HOP-62 NSCLC was 37.5 µM; with A549 NSCLC it was more than 51.1 µM; in the test with SR leukemia, more than 26.2 µM; in the test with MCF7 breast it was 35.8 µM; in the test on COLO 205 colon, more than 50.2 µM; in the test on SK-MEL-2 melanoma it was more than 50.7 µM. For the same compound, the total growth inhibition concentration (TGI) in the test with ACHN renal is more than 55.8 µM.
